Series [1] is described as follows: Evaluation of microsome stability in human. The series is classed as in vitro ADME. To be noted: pH 7.4; in vitro intrinsic metabolic clearance; human liver microsomes 0.2 mg/mL, 1 μmol/L test compound, NADPH-generating system. As for the experimental part:
Human liver microsomes were purchased from Xenotech, LLC (Lenexa, Kans.). An incubation mixture consisted of microsomes in 50 mmol/L KH2PO4—K2HPO4 phosphate buffer (pH 7.4) and 1 μmol/L test compound. The concentration of microsomal protein was 0.2 mg/mL. An NADPH-generating system (5 mmol/L MgCl2, 5 mmol/L glucose-6-phosphate, 0.5 mmol/L beta-NADP+ and 1.5 unit/mL glucose-6-phosphate dehydrogenase) was added to the incubation mixture with a half volume of the reaction mixture to initiate the enzyme reaction. The reaction was terminated 15 and 30 minutes after the initiation of the reaction by mixing the reaction mixture with acetonitrile, followed by centrifugation at 2500 rpm for 10 min. The supernatant was subjected to LC/MS/MS analysis. The metabolic rate constant was calculated as the slope of the remaining rate-time plot. The in vitro intrinsic metabolic clearance was calculated by dividing initial metabolic rate constant by microsomal protein in the incubation mixture.
In general terms: Microsomes from liver hold many membrane-bound enzymes, among them those of drug oxidation.

The target of series [2] is T1, human orexin type 2 receptor (Homo sapiens, UniProt O43614).
T1 construct: expressed in transfected cells
T1 sequence (O43614 1-444): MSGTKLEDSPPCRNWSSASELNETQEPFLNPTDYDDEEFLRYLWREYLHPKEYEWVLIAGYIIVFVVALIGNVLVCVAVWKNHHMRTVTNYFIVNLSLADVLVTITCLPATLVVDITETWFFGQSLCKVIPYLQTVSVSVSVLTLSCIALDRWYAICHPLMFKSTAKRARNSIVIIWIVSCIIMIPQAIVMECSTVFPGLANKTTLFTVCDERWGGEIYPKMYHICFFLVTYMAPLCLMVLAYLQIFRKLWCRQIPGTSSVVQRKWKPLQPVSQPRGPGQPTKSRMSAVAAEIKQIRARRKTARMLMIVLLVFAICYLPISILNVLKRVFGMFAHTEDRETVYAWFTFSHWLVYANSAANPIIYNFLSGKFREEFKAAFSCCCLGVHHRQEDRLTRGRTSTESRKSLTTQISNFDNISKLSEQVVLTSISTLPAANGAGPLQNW
The series can be described thus: Measurement of orexin type 2 receptor agonist activity (calcium indicator fluorescence, CHO cells forcibly expressing human OX2 receptor). Conditions: compound at 3 μM; 0% = DMSO, 100% = orexin A (human) 10 nM. The series is classed as cell-based. In a few lines:
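CHO-dhfr cells stably expressing human OX2R, loaded with Fluo-4 AM (30 min 37 °C, then 30 min RT), then given test compound. Calcium fluorescence read by FDSS over ~2 min. Activity (%) scaled from DMSO (0%) to 10 nM final orexin A (100%).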

In a further series the test system is cynomolgus monkeys. The series can be described thus: Evaluation of wake-promoting effects in cynomolgus monkeys (EEG/EMG). The series is classed as in vivo, cynomolgus monkey. Conditions: Macaca fascicularis, time spent in wakefulness for 4 h after administration, read-out: Wakefulness time (% of vehicle treatment) (Mean); for response vs control in vivo at 3 mg/kg / response vs control in vivo at 10 mg/kg: po; for response vs control in vivo at 3 mg/kg: 3 mg/kg p.o. at ZT12; for response vs control in vivo at 10 mg/kg: 10 mg/kg p.o. at ZT12. As to the method: The wake-promoting effects were evaluated by measuring the electroencephalogram (EEG) and electromyogram (EMG) in cynomolgus monkeys. Under isoflurane anesthesia (1-5%, Pfizer Japan Inc., Tokyo, Japan), male cynomolgus monkeys (3-5 years old, Hamri Co., Ltd., Ibaraki, Japan) were surgically implanted with radio-telemetry transmitters (TL10M3-D70-EEE, Data Sciences International Inc., MN, USA). EEG electrodes were screwed into the skull at the parietal area. EMG electrodes were implanted on the cervical muscles. After the surgery, each monkey was given penicillin (100,000 units/head, i.m., Meiji Seika Pharma Co., Ltd., Tokyo, Japan), buprenorphine (0.02 mg/kg, i.m., Otsuka Pharmaceutical Co., Ltd., Tokyo, Japan) and prednisolone (1 mg/kg, s.c., Kyoritsu Seiyaku Co., Ltd., Tokyo, Japan) daily for one week. After at least a 1-month recovery period in home cages, the monkeys were habituated to the recording chamber placed in a soundproof room. EEG and EMG signals were recorded using the telemetry system (Dataquest ART software, Data Sciences International Inc., MN, USA) and the signals were analyzed using SleepSign software (Kissei Comtec Co., Ltd., Nagano, Japan). After confirming long sleep in dark phase in the experimental room, we used animals to examine the wake-promoting effect of compounds.
Oral test compounds (3 or 10 mg/kg) suspended in 0.5% methylcellulose aqueous solution, or vehicle (i.e., 0.5% methylcellulose aqueous solution) was administered orally (p.o.) to monkeys at zeitgeber time 12 (ZT12) in a volume of 5 mL/kg body weight in cross-over design or pre-post design (n=1-4). EEG and EMG recordings were performed for 4 h after the compound administration. The time spent in wakefulness for 4 h after administration (% of vehicle treatment) was calculated by using SleepSign.
Parenteral test compounds (0.1 or 0.3 mg/kg) dissolved in a mixed solution comprising 5% DMSO, 5% Cremophor EL, 20% PEG400 and 70% soluplus (1% (w/v)), or vehicle (i.e., a mixed solution comprising 5% DMSO, 5% Cremophor EL, 20% PEG400 and 70% soluplus (1% (w/v))) was administered subcutaneously (s.c.) to monkeys at ZT12 in a volume of 0.5 mL/kg body weight in a pre-post design (n=1-2). EEG and EMG recordings were performed for 4 h after the compound administration. The time spent in wakefulness for 4 h after administration (% of vehicle treatment) was calculated by using SleepSign.

As usually defined, the microsomal CLint is the rate of metabolic loss divided by the concentration. Read a low microsomal CLint as slow turnover.

`CCS(=O)(=O)N[C@@H]1[C@H](Cc2cccc(-c3cc(F)cc(F)c3)c2F)N(C(=O)[C@H]2CCO2)CC1(F)F` [Example 56, N-{(2S,3R)-4,4-difluoro-1-((2R)-oxetane-2-carbonyl)-2-[(2,3′,5′-trifluoro[1,1′-biphenyl]-3-yl)methyl]pyrrolidin-3-yl}ethanesulfonamide] came in with an intrinsic clearance (microsomal CLint) at 1 μmol/L in series [1] of 135 µL/min/mg. In addition, the “OX2R agonist activity (3 μM, %)” value in series [2] stood at 95%. In addition, the response vs control in vivo at 3 mg/kg in the series on cynomolgus monkeys is 417%.
With `CCS(=O)(=O)N[C@@H]1[C@H](Cc2cccc(-c3cc(F)cc(F)c3)c2F)N(C(=O)C(C)C)CC1(F)F` [Example 146, N-{(2S,3R)-4,4-difluoro-1-(2-methylpropanoyl)-2-[(2,3′,5′-trifluoro[1,1′-biphenyl]-3-yl)methyl]pyrrolidin-3-yl}ethanesulfonamide], the intrinsic clearance (microsomal CLint) at 1 μmol/L in series [1] stood at 83 µL/min/mg. Moreover, the “OX2R agonist activity (3 μM, %)” value in series [2] worked out at 92%. The response vs control in vivo at 3 mg/kg in the series on cynomolgus monkeys worked out at 426%.
In series [1], `CCS(=O)(=O)N[C@@H]1[C@H](Cc2cccc(-c3cccc(F)c3)c2F)N(C(=O)[C@H]2C[C@H](F)C2)CC1(F)F` [Example 225, N-[(2S,3R)-2-[(2,3′-difluoro[1,1′-biphenyl]-3-yl)methyl]-4,4-difluoro-1-((1r,3S)-3-fluorocyclobutane-1-carbonyl)pyrrolidin-3-yl]ethanesulfonamide] yielded an intrinsic clearance (microsomal CLint) at 1 μmol/L of 60 µL/min/mg. Moreover, the “OX2R agonist activity (3 μM, %)” value in series [2] stood at 96%. In the series on cynomolgus monkeys, the response vs control in vivo at 3 mg/kg was 318%.
The corresponding values for `CCS(=O)(=O)N[C@@H]1[C@H](Cc2cccc(-c3cccc(F)c3)c2F)N(C(=O)[C@H]2CCO2)CC1(F)F` [Example 1, N-[(2S,3R)-2-[(2,3′-difluoro[1,1′-biphenyl]-3-yl)methyl]-4,4-difluoro-1-((2R)-oxetane-2-carbonyl)pyrrolidin-3-yl]ethanesulfonamide] are 75 µL/min/mg, 100% and 234%.
The corresponding values for `CCS(=O)(=O)N[C@@H]1[C@H](Cc2cccc(-c3cc(F)cc(F)c3)c2F)N(C(=O)[C@H]2C[C@H](F)C2)CC1(F)F` [Example 375, N-{(2S,3R)-4,4-difluoro-1-((1r,3S)-3-fluorocyclobutane-1-carbonyl)-2-[(2,3′,5′-trifluoro[1,1′-biphenyl]-3-yl)methyl]pyrrolidin-3-yl}ethanesulfonamide] are 35 µL/min/mg, 91% and 396%.
Turning to `CCS(=O)(=O)N[C@H]1[C@@H](F)CN(C(=O)C2CC2)[C@H]1Cc1cccc(-c2cc(F)cc(F)c2)c1F` [Example 236, N-{(2S,3R,4S)-1-(cyclopropanecarbonyl)-4-fluoro-2-[(2,3′,5′-trifluoro[1,1′-biphenyl]-3-yl)methyl]pyrrolidin-3-yl}ethanesulfonamide], in series [1], the intrinsic clearance (microsomal CLint) at 1 μmol/L is 67 µL/min/mg. The “OX2R agonist activity (3 μM, %)” value in series [2] is given as 100%. Besides, the response vs control in vivo at 10 mg/kg in the series with cynomolgus monkeys is 716%.
In the case of `CCS(=O)(=O)N[C@H]1[C@@H](F)CN(C(=O)[C@H]2CCO2)[C@H]1Cc1cccc(-c2ccccc2)c1F` [Example 302, N-[(2S,3R,4S)-4-fluoro-2-[(2-fluoro[1,1′-biphenyl]-3-yl)methyl]-1-((2R)-oxetane-2-carbonyl)pyrrolidin-3-yl]ethanesulfonamide], in series [1], the intrinsic metabolic clearance (microsomal CLint) at 1 μmol/L amounted to 3 µL/min/mg. For the same compound, the “OX2R agonist activity (3 μM, %)” value in series [2] stood at 85%. In the series on cynomolgus monkeys, the response vs control in vivo at 10 mg/kg is 288%.
`CS(=O)(=O)N[C@@H]1[C@H](Cc2cccc(-c3cc(F)cc(F)c3)c2F)N(C(=O)[C@H]2C[C@@H](F)C2)CC1(F)F` [Example 433, N-{(2S,3R)-4,4-difluoro-1-(3-fluorocyclobutane-1-carbonyl)-2-[(2,3′,5′-trifluoro[1,1′-biphenyl]-3-yl)methyl]pyrrolidin-3-yl}methanesulfonamide] displayed a microsomal CLint at 1 μmol/L in series [1] of 16 µL/min/mg. Besides, in series [2], the “OX2R agonist activity (3 μM, %)” value is given as 101%. Besides, in the series on cynomolgus monkeys, the response vs control in vivo at 3 mg/kg came to 727%.
For `CCS(=O)(=O)N[C@@H]1[C@H](Cc2cccc(-c3cc(F)ccc3F)c2F)N(C(=O)C(C)(C)O)CC1(F)F` [Example 67, N-{(2S,3R)-4,4-difluoro-1-(2-hydroxy-2-methylpropanoyl)-2-[(2,2′,5′-trifluoro[1,1′-biphenyl]-3-yl)methyl]pyrrolidin-3-yl}ethanesulfonamide] the same measures were 4 µL/min/mg, 111% and 356%.
For `CCS(=O)(=O)N[C@H]1[C@@H](F)CN(C(=O)N2CCC2)[C@H]1Cc1cccc(-c2cccc(C)c2)c1F` [Example 451, N-{(2S,3R,4S)-1-(azetidine-1-carbonyl)-4-fluoro-2-[(2-fluoro-3′-methyl[1,1′-biphenyl]-3-yl)methyl]pyrrolidin-3-yl}ethanesulfonamide], in series [2], the “OX2R agonist activity (3 μM, %)” value is on record as 82%. Further, the response vs control in vivo at 0.1 mg/kg in the series on cynomolgus monkeys (sc, 0.1 mg/kg s.c. at ZT12) is 225%.
For the compound `Cc1cccc(-c2cccc(C[C@H]3[C@@H](NS(=O)(=O)N(C)C)[C@@H](F)CN3C(=O)N(C)C)c2F)c1` [Example 459, (2S,3R,4S)-3-[(dimethylsulfamoyl)amino]-4-fluoro-2-[(2-fluoro-3′-methyl[1,1′-biphenyl]-3-yl)methyl]-N,N-dimethylpyrrolidine-1-carboxamide], the “OX2R agonist activity (3 μM, %)” value in series [2] came out at 78%. The response vs control in vivo at 0.3 mg/kg in the series with cynomolgus monkeys (sc, 0.3 mg/kg s.c. at ZT12) was determined as 431%.
Regarding `CS(=O)(=O)N[C@@H]1[C@H](Cc2cccc(-c3cc(F)cc(F)c3)c2F)N(C(=O)[C@H]2CCO2)CC1(F)F` [Example 91, N-{(2S,3R)-4,4-difluoro-1-((2R)-oxetane-2-carbonyl)-2-[(2,3′,5′-trifluoro[1,1′-biphenyl]-3-yl)methyl]pyrrolidin-3-yl}methanesulfonamide], the microsomal CLint at 1 μmol/L in series [1] was determined as 65 µL/min/mg. Moreover, in series [2], the “OX2R agonist activity (3 μM, %)” value is 94%. In the series on cynomolgus monkeys, the response vs control in vivo at 10 mg/kg is 548%.
For `CCS(=O)(=O)N[C@@H]1[C@H](Cc2cccc(-c3ccccc3)c2F)N(C(=O)C(C)(C)O)CC1(F)F` [Example 5, N-[(2S,3R)-4,4-difluoro-2-[(2-fluoro[1,1′-biphenyl]-3-yl)methyl]-1-(2-hydroxy-2-methylpropanoyl)pyrrolidin-3-yl]ethanesulfonamide] the same measures were 12 µL/min/mg, 117% and 412%.

These data come from patent publication US20230040770A1, “HETEROCYCLIC COMPOUND AND USE THEREOF” (TAKEDA PHARMACEUTICAL COMPANY LIMITED, priority 2019, published 2023).
